Starred links: 1 amine or outer side, 2 acyl side, 3 side chain; linkers in the order of their positions; H or OH if unused. Non-standard residues stand in square brackets, D forms with d. Residues, ends and D or L forms follow the SMILES beside them. Groups on a side chain read outwards from the residue. *: point of attachment. C20 diacid = O=C(O)CCCCCCCCCCCCCCCCCCC(=O)*; C18 diacid = O=C(O)CCCCCCCCCCCCCCCCC(=O)*; γGlu = O=C(O)[C@H](CCC(=O)[*:2])N[*:1]; αMeF = C[C@](N)(Cc1ccccc1)C(=O)O; AEEA = NCCOCCOCC(=O)O; Aib = CC(C)(N)C(=O)O
How the values were obtained:
[1] = target: human GLP-1 receptor (hGLP-1R) (Homo sapiens, UniProt P43220); experiment: cAMP production (HTRF) in CHO cells expressing hGLP-1R; format: cell-based; parameters: expressed in transfected cells; details: for EC50: Table 7, peptides modified at position 20, cAMP in CHO hGLP-1R cells, geometric mean, read-out: hGLP-1R EC50; for % Relative Potency Ratio: Table 7, % GLP-1R activity relative to GLP-1 / % GlucR activity relative to glucagon
Method in brief: (§1)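 Cells were resuspended in assay buffer at batch-optimized density, typically 1×10^5 cells/mL for hGLP-1R and 2×10^5 cells/mL for hGCGR. After 30 min incubation at room temperature with compound, cAMP was measured by two-step HTRF. EC50 values came from 4-parameter logistic fits of % Delta F.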

[2] = target: human glucagon receptor (hGCGR) (Homo sapiens, UniProt P47871); experiment: cAMP production (HTRF) in CHO cells expressing hGCGR; format: cell-based; parameters: expressed in transfected cells; details: Table 7, peptides modified at position 20; cAMP in CHO hGCGR cells; geometric mean; read-out: hGluc-R EC50
Method in brief: as §1

Chain of human glucagon receptor (hGCGR) (P47871 26-477): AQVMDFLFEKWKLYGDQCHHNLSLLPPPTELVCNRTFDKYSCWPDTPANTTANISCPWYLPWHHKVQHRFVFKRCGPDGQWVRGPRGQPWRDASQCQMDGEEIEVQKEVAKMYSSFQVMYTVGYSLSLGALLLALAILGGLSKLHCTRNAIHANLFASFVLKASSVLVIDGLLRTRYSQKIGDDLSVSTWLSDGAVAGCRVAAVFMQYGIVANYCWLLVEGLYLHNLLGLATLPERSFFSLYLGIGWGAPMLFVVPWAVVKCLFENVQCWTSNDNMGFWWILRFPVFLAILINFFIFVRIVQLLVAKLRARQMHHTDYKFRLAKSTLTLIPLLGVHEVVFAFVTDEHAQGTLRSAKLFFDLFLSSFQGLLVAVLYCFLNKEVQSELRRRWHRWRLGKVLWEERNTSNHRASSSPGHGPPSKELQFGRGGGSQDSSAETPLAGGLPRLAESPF
Chain of human GLP-1 receptor (hGLP-1R) (P43220 24-463): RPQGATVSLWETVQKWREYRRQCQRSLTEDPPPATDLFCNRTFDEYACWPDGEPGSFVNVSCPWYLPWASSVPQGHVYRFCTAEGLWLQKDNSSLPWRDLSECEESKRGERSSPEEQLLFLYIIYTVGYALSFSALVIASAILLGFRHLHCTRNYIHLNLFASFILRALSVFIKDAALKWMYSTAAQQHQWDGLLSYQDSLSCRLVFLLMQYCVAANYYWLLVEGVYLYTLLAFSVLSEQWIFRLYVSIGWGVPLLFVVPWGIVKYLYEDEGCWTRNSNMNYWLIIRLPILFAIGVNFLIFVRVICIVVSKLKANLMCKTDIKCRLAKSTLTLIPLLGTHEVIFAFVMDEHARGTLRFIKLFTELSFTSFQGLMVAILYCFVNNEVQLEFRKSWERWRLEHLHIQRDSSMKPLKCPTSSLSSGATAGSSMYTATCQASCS

**Q.** With `CC[C@H](C)[C@H](NC(=O)[C@H](Cc1c[nH]c2ccccc12)NC(=O)[C@H](CCC(N)=O)NC(=O)[C@@H](NC(=O)[C@](C)(Cc1ccccc1)NC(=O)[C@H](CC(=O)O)NC(=O)[C@H](CCCCNC(=O)COCCOCCNC(=O)COCCOCCNC(=O)CC[C@H](NC(=O)CC[C@H](NC(=O)CCCCCCCCCCCCCCCCCCC(=O)O)C(=O)O)C(=O)O)NC(=O)[C@H](C)NC(=O)[C@H](C)NC(=O)[C@H](CCCNC(=N)N)NC(=O)[C@H](CO)NC(=O)[C@H](CC(=O)O)NC(=O)[C@H](CC(C)C)NC(=O)[C@](C)(Cc1ccccc1)NC(=O)[C@H](CCCCN)NC(=O)[C@H](CO)NC(=O)[C@@H](NC(=O)[C@H](CC(=O)O)NC(=O)[C@H](CO)NC(=O)[C@@H](NC(=O)[C@](C)(Cc1ccccc1)NC(=O)[C@H](CO)NC(=O)CNC(=O)[C@H](Cc1c[nH]cn1)NC(=O)C(C)(C)NC(=O)[C@@H](N)Cc1c[nH]cn1)[C@@H](C)O)C(C)C)C(C)C)C(=O)N[C@@H](C)C(=O)N[C@@H](CC(N)=O)C(=O)N[C@H](C(=O)NCC(=O)NCC(N)=O)[C@@H](C)O` [Peptide 239] (H-H[Aib]HGS[αMeF]TSDVSK[αMeF]LDSRAAK([AEEA-AEEA-γGlu-γGlu-C20 diacid])D[αMeF]VQWIANTGG-NH2) as the molecule, how does the EC50 [1] read?
**A.** 0.105 nM

**Q.** And the “% Relative Potency Ratio” value [1]?
**A.** 13.2

**Q.** And the EC50 [2]?
**A.** 0.705 nM

**Q.** Which results are given for `CC[C@H](C)[C@H](NC(=O)[C@H](Cc1c[nH]c2ccccc12)NC(=O)[C@H](CCC(N)=O)NC(=O)[C@@H](NC(=O)[C@](C)(Cc1ccccc1)NC(=O)[C@H](CC(=O)O)NC(=O)[C@H](CCCCNC(=O)COCCOCCNC(=O)COCCOCCNC(=O)CC[C@H](NC(=O)CC[C@H](NC(=O)CCCCCCCCCCCCCCCCC(=O)O)C(=O)O)C(=O)O)NC(=O)[C@H](C)NC(=O)[C@H](C)NC(=O)[C@H](CCCNC(=N)N)NC(=O)[C@H](CO)NC(=O)[C@H](CC(=O)O)NC(=O)[C@H](CC(C)C)NC(=O)[C@](C)(Cc1ccccc1)NC(=O)[C@H](CCCCN)NC(=O)[C@H](CO)NC(=O)[C@@H](NC(=O)[C@H](CC(=O)O)NC(=O)[C@H](CO)NC(=O)[C@@H](NC(=O)[C@](C)(Cc1ccccc1)NC(=O)[C@H](CO)NC(=O)CNC(=O)[C@H](Cc1c[nH]cn1)NC(=O)C(C)(C)NC(=O)[C@@H](N)Cc1c[nH]cn1)[C@@H](C)O)C(C)C)C(C)C)C(=O)N[C@@H](C)C(=O)N[C@@H](CC(N)=O)C(=O)N[C@H](C(=O)NCC(N)=O)[C@@H](C)O` [Peptide 240] (H-H[Aib]HGS[αMeF]TSDVSK[αMeF]LDSRAAK([AEEA-AEEA-γGlu-γGlu-C18 diacid])D[αMeF]VQWIANTG-NH2)?
**A.** EC50 [1]: 0.0571 nM; % Relative Potency Ratio [1]: 11.5; EC50 [2]: 0.332 nM

**Q.** What does the source list for `CC[C@H](C)[C@H](NC(=O)[C@H](Cc1c[nH]c2ccccc12)NC(=O)[C@H](CCC(N)=O)NC(=O)[C@@H](NC(=O)[C@](C)(Cc1ccccc1)NC(=O)[C@H](CC(=O)O)NC(=O)[C@H](CCCCNC(=O)COCCOCCNC(=O)COCCOCCNC(=O)CC[C@H](NC(=O)CC[C@H](NC(=O)CCCCCCCCCCCCCCCCC(=O)O)C(=O)O)C(=O)O)NC(=O)[C@H](C)NC(=O)[C@H](C)NC(=O)[C@H](CCCNC(=N)N)NC(=O)[C@H](CO)NC(=O)[C@H](CC(=O)O)NC(=O)[C@H](CC(C)C)NC(=O)[C@](C)(Cc1ccccc1)NC(=O)[C@H](CCCCN)NC(=O)[C@H](CO)NC(=O)[C@@H](NC(=O)[C@H](CC(=O)O)NC(=O)[C@H](CO)NC(=O)[C@@H](NC(=O)[C@](C)(Cc1ccccc1)NC(=O)[C@H](CO)NC(=O)CNC(=O)[C@H](Cc1c[nH]cn1)NC(=O)C(C)(C)NC(=O)[C@@H](N)Cc1c[nH]cn1)[C@@H](C)O)C(C)C)C(C)C)C(=O)N[C@@H](C)C(=O)N[C@@H](CC(N)=O)C(=O)N[C@H](C(=O)NCC(=O)NCC(N)=O)[C@@H](C)O` [Peptide 241] (H-H[Aib]HGS[αMeF]TSDVSK[αMeF]LDSRAAK([AEEA-AEEA-γGlu-γGlu-C18 diacid])D[αMeF]VQWIANTGG-NH2; N-terminus assumed)?
**A.** EC50 [1]: 0.0358 nM; % Relative Potency Ratio [1]: 9.7; EC50 [2]: 0.175 nM

**Q.** `CC[C@H](C)[C@H](NC(=O)[C@H](CO)NC(=O)[C@H](CCC(N)=O)NC(=O)[C@@H](NC(=O)[C@H](Cc1ccccc1)NC(=O)[C@H](CC(=O)O)NC(=O)[C@H](CCCCNC(=O)COCCOCCNC(=O)COCCOCCNC(=O)CC[C@H](NC(=O)CC[C@H](NC(=O)CCCCCCCCCCCCCCCCCCC(=O)O)C(=O)O)C(=O)O)NC(=O)[C@H](C)NC(=O)C(C)(C)NC(=O)[C@H](CCCNC(=N)N)NC(=O)[C@H](CO)NC(=O)[C@H](CC(=O)O)NC(=O)[C@H](CC(C)C)NC(=O)[C@](C)(Cc1ccccc1)NC(=O)[C@H](CCCCN)NC(=O)[C@H](CO)NC(=O)[C@@H](NC(=O)[C@H](CC(=O)O)NC(=O)[C@H](CO)NC(=O)[C@@H](NC(=O)[C@](C)(Cc1ccccc1)NC(=O)[C@H](CO)NC(=O)CNC(=O)[C@H](Cc1c[nH]cn1)NC(=O)C(C)(C)NC(=O)[C@@H](N)Cc1c[nH]cn1)[C@@H](C)O)C(C)C)C(C)C)C(=O)N[C@@H](C)C(=O)N[C@@H](CC(N)=O)C(=O)N[C@H](C(N)=O)[C@@H](C)O` [Peptide 242] (H-H[Aib]HGS[αMeF]TSDVSK[αMeF]LDSR[Aib]AK([AEEA-AEEA-γGlu-γGlu-C20 diacid])DFVQSIANT-NH2; N-terminus assumed) was tested. Which EC50 [1] did it give?
**A.** 0.249 nM

**Q.** And the “% Relative Potency Ratio” value [1]?
**A.** 9.8

**Q.** What about the EC50 [2] of the same molecule?
**A.** 1.23 nM

**Q.** With `CC[C@H](C)[C@H](NC(=O)[C@H](CO)NC(=O)[C@H](CCC(N)=O)NC(=O)[C@@H](NC(=O)[C@](C)(Cc1ccccc1)NC(=O)[C@H](CC(=O)O)NC(=O)[C@H](CCCCNC(=O)COCCOCCNC(=O)COCCOCCNC(=O)CC[C@H](NC(=O)CCCCCCCCCCCCCCCCC(=O)O)C(=O)O)NC(=O)[C@H](C)NC(=O)[C@H](C)NC(=O)[C@H](CCCNC(=N)N)NC(=O)[C@H](CO)NC(=O)[C@H](CC(=O)O)NC(=O)[C@H](CC(C)C)NC(=O)[C@](C)(Cc1ccccc1)NC(=O)[C@H](CCCCN)NC(=O)[C@H](CO)NC(=O)[C@@H](NC(=O)[C@H](CC(=O)O)NC(=O)[C@H](CO)NC(=O)[C@@H](NC(=O)[C@](C)(Cc1ccccc1)NC(=O)[C@H](CO)NC(=O)CNC(=O)[C@H](Cc1c[nH]cn1)NC(=O)C(C)(C)NC(=O)[C@@H](N)Cc1c[nH]cn1)[C@@H](C)O)C(C)C)C(C)C)C(=O)N[C@@H](C)C(=O)N[C@@H](CC(N)=O)C(=O)N[C@H](C(N)=O)[C@@H](C)O` [Peptide 243] (H-H[Aib]HGS[αMeF]TSDVSK[αMeF]LDSRAAK([AEEA-AEEA-γGlu-C18 diacid])D[αMeF]VQSIANT-NH2) as the molecule, how does the EC50 [1] read?
**A.** 0.0593 nM

**Q.** What about the “% Relative Potency Ratio” value [1] of the same molecule?
**A.** 1.7

**Q.** What about the EC50 [2] of the same molecule?
**A.** 0.0506 nM

**Q.** How did the EC50 [1] turn out when `CC[C@H](C)[C@H](NC(=O)[C@H](CO)NC(=O)[C@H](CCC(N)=O)NC(=O)[C@@H](NC(=O)[C@](C)(Cc1ccccc1)NC(=O)[C@H](CC(=O)O)NC(=O)[C@H](CCCCNC(=O)COCCOCCNC(=O)COCCOCCNC(=O)CC[C@H](NC(=O)CC[C@H](NC(=O)CCCCCCCCCCCCCCCCCCC(=O)O)C(=O)O)C(=O)O)NC(=O)[C@H](C)NC(=O)[C@H](C)NC(=O)[C@H](CCCNC(=N)N)NC(=O)[C@H](CO)NC(=O)[C@H](CC(=O)O)NC(=O)[C@H](CC(C)C)NC(=O)[C@](C)(Cc1ccccc1)NC(=O)[C@H](CCCCN)NC(=O)[C@H](CO)NC(=O)[C@@H](NC(=O)[C@H](CC(=O)O)NC(=O)[C@H](CO)NC(=O)[C@@H](NC(=O)[C@](C)(Cc1ccccc1)NC(=O)[C@H](CO)NC(=O)CNC(=O)[C@H](Cc1c[nH]cn1)NC(=O)C(C)(C)NC(=O)[C@@H](N)Cc1c[nH]cn1)[C@@H](C)O)C(C)C)C(C)C)C(=O)N[C@@H](C)C(=O)N[C@@H](CC(N)=O)C(=O)N[C@H](C(N)=O)[C@@H](C)O` [Peptide 244] (H-H[Aib]HGS[αMeF]TSDVSK[αMeF]LDSRAAK([AEEA-AEEA-γGlu-γGlu-C20 diacid])D[αMeF]VQSIANT-NH2) was run?
**A.** 0.143 nM

**Q.** And the “% Relative Potency Ratio” value [1]?
**A.** 5.8

**Q.** And the EC50 [2]?
**A.** 0.42 nM

**Q.** Which EC50 [1] does the source give for `CC[C@H](C)[C@H](NC(=O)[C@H](CO)NC(=O)[C@H](CCC(=O)O)NC(=O)[C@@H](NC(=O)[C@](C)(Cc1ccccc1)NC(=O)[C@H](CC(=O)O)NC(=O)[C@H](CCCCNC(=O)COCCOCCNC(=O)COCCOCCNC(=O)CC[C@H](NC(=O)CCCCCCCCCCCCCCCCC(=O)O)C(=O)O)NC(=O)[C@H](C)NC(=O)[C@H](C)NC(=O)[C@H](CCCNC(=N)N)NC(=O)[C@H](CO)NC(=O)[C@H](CC(=O)O)NC(=O)[C@H](CC(C)C)NC(=O)[C@](C)(Cc1ccccc1)NC(=O)[C@H](CCCCN)NC(=O)[C@H](CO)NC(=O)[C@@H](NC(=O)[C@H](CC(=O)O)NC(=O)[C@H](CO)NC(=O)[C@@H](NC(=O)[C@](C)(Cc1ccccc1)NC(=O)[C@H](CO)NC(=O)CNC(=O)[C@H](Cc1c[nH]cn1)NC(=O)C(C)(C)NC(=O)[C@@H](N)Cc1c[nH]cn1)[C@@H](C)O)C(C)C)C(C)C)C(=O)N[C@@H](C)C(=O)N[C@@H](CC(N)=O)C(=O)N[C@H](C(N)=O)[C@@H](C)O` [Peptide 245] (H-H[Aib]HGS[αMeF]TSDVSK[αMeF]LDSRAAK([AEEA-AEEA-γGlu-C18 diacid])D[αMeF]VESIANT-NH2) here?
**A.** 0.11 nM

**Q.** And the “% Relative Potency Ratio” value [1]?
**A.** 1.1

**Q.** And the EC50 [2]?
**A.** 0.0627 nM

— patent US20250353891A1 (MEDIMMUNE LIMITED, priority 2022, published 2025)
